The results in this text go back to patent publication EP1570862A1, “Highly soluble binary cyclodextrin inclusion complexes” (priority 2004, dated 2005).

Converted amounts (≈) assume the structure as drawn.

The nature of the data set: physchem. Particulars: water. The procedure:
The samples were mechanically shaken in a thermostatic bath shaker (~ 200 rpm) to attain thermal equilibrium, an aliquot was centrifuged (when necessary) and filtered using a 0.45µm filter (cellulose acetate or cellulose nitrate, Advantec MFS Inc., Duplin, USA).
The samples were shaken for different time intervals.

Compound `OC[C@H]1O[C@@H]2O[C@H]3[C@H](O)[C@@H](O)[C@@H](O[C@H]4[C@H](O)[C@@H](O)[C@@H](O[C@H]5[C@H](O)[C@@H](O)[C@@H](O[C@H]6[C@H](O)[C@@H](O)[C@@H](O[C@H]7[C@H](O)[C@@H](O)[C@@H](O[C@H]8[C@H](O)[C@@H](O)[C@@H](O[C@H]1[C@H](O)[C@H]2O)O[C@@H]8CO)O[C@@H]7CO)O[C@@H]6CO)O[C@@H]5CO)O[C@@H]4CO)O[C@@H]3CO` [β-cyclodextrin] had a solubility (thermodynamic) of 115 mM (≈ 131 mg/mL).
